# Data from patent publication US9896441B2 (Lycera Corporation, priority 2014, dated 2018).
# How the values were obtained:
# RORγ-LBD = biological target: T1, RORγ-LBD (Homo sapiens, UniProt P51449); assay: RORγ-Ligand Binding Domain (LBD) TR-FRET Assay; type: biochemical; conditions: for TR-FRET Assay Max Response: maximum response;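 on TR-FRET Assay Max Response: 665/615 nm signal ratio set to 100 without ursolic acid or test compound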
# T1 construct: made in house; host or cells: SF9 cells (baculovirus); used as diluted lysate
# T1 sequence (P51449 269-508 limits assumed): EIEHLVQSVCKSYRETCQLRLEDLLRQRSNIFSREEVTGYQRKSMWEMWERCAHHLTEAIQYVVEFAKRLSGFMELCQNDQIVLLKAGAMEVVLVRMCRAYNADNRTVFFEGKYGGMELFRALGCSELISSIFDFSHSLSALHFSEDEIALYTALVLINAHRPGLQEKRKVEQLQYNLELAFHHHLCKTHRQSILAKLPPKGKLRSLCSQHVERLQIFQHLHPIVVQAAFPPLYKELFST
# In short: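 Lysate from SF9 cells expressing His-RORγ-LBD is diluted to about 3 nM final in 50 mM Tris pH 7.0 assay buffer. A biotin-tagged SRC1 LXXLL peptide goes in at 200 nM final, plus ursolic acid at 2 μM final. Test compounds carry 1% DMSO final; signal read by TR-FRET.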
# Gal4-RORγ-LBD = biological target: T2, Gal4-RORγ-LBD (Homo sapiens, UniProt P51449); assay: Gal4-RORγ Luciferase Reporter Assay in HEK-293T Cells; type: cell-based; conditions: HEK-293 cells; for Gal4-RORγ Assay Max Response: maximum response
# T2 construct: expressed in transfected cells
# T2 sequence (P51449 269-508 limits assumed): T1 sequence (P51449 269-508 limits assumed)
# In short: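 Max Response was taken as the upper plateau of a 4-parameter logistic fit of luciferase signal, normalized to 100 for wells without ursolic acid or compound. Transiently Gal4-RORγ-LBD/Gal4-luc transfected HEK-293 cells carrying […] ursolic acid were incubated with test compounds (0.2% DMSO) overnight at 37 °C and read with One-Glo.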
# [1] = luciferase reporter, in presence of ursolic acid
# [2] = luciferase reporter, with ursolic acid
Structure (SMILES),EC50 (RORγ-LBD; RORγ-LBD TR-FRET) [nM],EC50 (Gal4-RORγ-LBD; [2]) [nM],also measured
"COC(=O)C(C)(C)C[C@@H]1Cc2ccc(/C=C/c3c(F)cccc3Cl)cc2N(S(=O)(=O)c2ccc(F)c(OC)c2)C1 [Example 153, Methyl (S,E)-3-(7-(2-chloro-6-fluorostyryl)-1-((4-fluoro-3-methoxyphenyl)sulfonyl)-1,2,3,4-tetrahydroquinolin-3-yl)-2,2-dimethylpropanoate]",,,EC50 (RORγ-LBD; RORγ-LBD TR-FRET assay): < 500 nM; TR-FRET Assay Max Response (RORγ-LBD; RORγ-LBD TR-FRET assay): *** (a value in the range of greater than 150 to 200); EC50 (Gal4-RORγ-LBD; [1]): > 10000 nM; Gal4-RORγ Assay Max Response (Gal4-RORγ-LBD; [1]): * (a value in the range of 30 to 90)
"COC(=O)CC[C@H]1CN(S(=O)(=O)c2cccc(C(F)(F)F)c2)c2cc(/C=C(\C)c3c(F)cccc3Cl)c(Cl)cc2O1 [Example 45, (S,E)-Methyl 3-(7-chloro-6-(2-(2-chloro-6-fluorophenyl)prop-1-en-1-yl)-4-((3-(trifluoromethyl)phenyl)sulfonyl)-3,4-dihydro-2H-benzo[b][1,4]oxazin-2-yl)propanoate]",< 500,500 to 5000,
"O=C(O)CC[C@H]1CC(S(=O)(=O)c2cccc(C(F)(F)F)c2)c2cc(OCc3c(F)cccc3Cl)ccc2O1 (stereo in doubt) [Example 186A, 3-(6-((2-chloro-6-fluorobenzyl)-oxy)-4-((3-(trifluoromethyl)-phenyl)sulfonyl)chroman-2-yl)propanoic acid]",,,EC50 (RORγ-LBD; RORγ-LBD TR-FRET assay): < 500 nM; EC50 (Gal4-RORγ-LBD; [1]): 500 to 5000 nM
"C/C(=C\c1ccc2c(c1)N(S(=O)(=O)c1cccc(C(C)C)c1)C[C@H](CCC(=O)O)O2)c1c(F)cccc1Cl [Example 86Q, (S,E)-3-(6-(2-(2-chloro-6-fluorophenyl)prop-1-en-1-yl)-4-((3-isopropylphenyl)sulfonyl)-3,4-dihydro-2H-benzo[b][1,4]oxazin-2-yl)propanoic acid]",< 500,< 500,
"COC(=O)CC[C@H]1CN(S(=O)(=O)c2cc(C(F)(F)F)cnc2OCCO)c2cc(C=C(C)C)ccc2O1 [Example 95AD, methyl (S)-3-(4-((2-(2-hydroxyethoxy)-5-(trifluoromethyl)pyridin-3-yl)sulfonyl)-6-(2-methylprop-1-en-1-yl)-3,4-dihydro-2H-benzo[b][1,4]oxazin-2-yl)propanoic acid]",< 500,500 to 5000,
"CC1CCCC(=Cc2ccc3c(c2)N(S(=O)(=O)c2cc(C(F)(F)F)cnc2OCCO)C[C@H](CCC(=O)O)O3)C1 (stereo partly drawn) [Example 95U, 3-((2S)-4-((2-(2-hydroxyethoxy)-5-(trifluoromethyl)pyridin-3-yl)sulfonyl)-6-((3-methylcyclohexylidene)methyl)-3,4-dihydro-2H-benzo[b][1,4]oxazin-2-yl)propanoic acid]",< 500,500 to 5000,
"O=C(O)CC[C@H]1CN(S(=O)(=O)c2cccc(C(F)(F)F)c2)c2cc(C=C3CCCCC3)ccc2O1 [Example 91, (S)-3-(6-(Cyclohexylidenemethyl)-4-((3-(trifluoromethyl)phenyl)sulfonyl)-3,4-dihydro-2H-benzo[b][1,4]oxazin-2-yl)propanoic acid]",< 500,500 to 5000,
"COC(=O)CC[C@H]1CN(S(=O)(=O)c2cc(C3CC3)cnc2OCCO)c2cc(/C=C/c3c(F)cccc3Cl)ccc2O1 [Example 89FP, methyl (S,E)-3-(6-(2-chloro-6-fluorostyryl)-4-((5-cyclopropyl-2-(2-hydroxyethoxy)pyridin-3-yl)sulfonyl)-3,4-dihydro-2H-benzo[b][1,4]oxazin-2-yl)propanoate]",,,"EC50 (RORγ-LBD; with 2 μM ursolic acid (RORγ antagonist), highest test concentration 10 μM): < 500 nM; EC50 (Gal4-RORγ-LBD; ursolic acid present, luciferase readout): < 500 nM"
"CC/C(C)=C\c1ccc2c(c1)N(S(=O)(=O)c1cccc(C(F)(F)F)c1)C[C@H](CCC(=O)O)O2 [Example 191B, (S,Z)-3-(6-(2-methylbut-1-en-1-yl)-4-((3-(trifluoromethyl)-phenyl)sulfonyl)-3,4-dihydro-2H-benzo[b][1,4]oxazin-2-yl)propanoic acid]",,,EC50 (RORγ-LBD; RORγ-LBD TR-FRET assay): < 500 nM; TR-FRET Assay Max Response (RORγ-LBD; RORγ-LBD TR-FRET assay): *** (a value in the range of greater than 150 to 200); EC50 (Gal4-RORγ-LBD; [1]): 500 to 5000 nM; Gal4-RORγ Assay Max Response (Gal4-RORγ-LBD; [1]): *** (a value in the range of greater than 150 to 200)
"C[C@@H](O)COc1ncc(C(F)(F)F)cc1S(=O)(=O)N1C[C@H](CCC(=O)O)Oc2ccc(/C=C/c3c(F)cccc3Cl)cc21 [Example 79, 3-((S)-6-((E)-2-Chloro-6-fluorostyryl)-4-((2-((R)-2-hydroxypropoxy)-5-(trifluoromethyl)pyridin-3-yl)sulfonyl)-3,4-dihydro-2H-benzo[b][1,4]oxazin-2-yl)propanoic acid]",< 500,500 to 5000,
"COc1cc(S(=O)(=O)N2c3cc(/C=C/c4c(F)cccc4Cl)ccc3C[C@H](O)[C@H]2C)ccc1F (racemic) [Example 174, rac-(2R,3S)-7-((E)-2-Chloro-6-fluorostyryl)-1-((4-fluoro-3-methoxyphenyl)sulfonyl)-2-methyl-1,2,3,4-tetrahydroquinolin-3-ol]",,,EC50 (RORγ-LBD; RORγ-LBD TR-FRET assay): < 500 nM; TR-FRET Assay Max Response (RORγ-LBD; RORγ-LBD TR-FRET assay): ** (a value in the range of greater than 90 to 150); EC50 (Gal4-RORγ-LBD; [1]): 500 to 5000 nM; Gal4-RORγ Assay Max Response (Gal4-RORγ-LBD; [1]): * (a value in the range of 30 to 90)
"CCOc1nn(CC)cc1S(=O)(=O)N1C[C@H](CCC(=O)O)Oc2ccc(/C=C/c3ncccc3Cl)cc21 [Example 89EE, (S,E)-3-(6-(2-(3-chloropyridin-2-yl)vinyl)-4-((3-ethoxy-1-ethyl-1H-pyrazol-4-yl)sulfonyl)-3,4-dihydro-2H-benzo[b][1,4]oxazin-2-yl)propanoic acid]",< 500,500 to 5000,
"COC(=O)CC[C@H]1CN(S(=O)(=O)c2cccc(C(F)(F)F)c2)c2cc(/C=C(\C)c3c(F)cccc3Cl)c(C)cc2O1 [Example 55, Methyl (S,E)-3-(6-(2-(2-chloro-6-fluorophenyl)prop-1-en-1-yl)-7-methyl-4-((3-(trifluoromethyl)phenyl)sulfonyl)-3,4-dihydro-2H-benzo[b][1,4]oxazin-2-yl)propanoate]",< 500,< 500,
"C[C@@H]1C/C(=C\c2ccc3c(c2)N(S(=O)(=O)c2cccc(C(F)(F)F)c2)C[C@H](CCC(=O)O)O3)C[C@H](C)C1 [Example 95Z, 3-((S)-6-((E)-((3R,5S)-3,5-dimethylcyclohexylidene)-methyl)-4-((3-(trifluoromethyl)-phenyl)sulfonyl)-3,4-dihydro-2H-benzo[b][1,4]oxazin-2-yl)propanoic acid]",< 500,500 to 5000,
"CCOc1nn(CC)cc1S(=O)(=O)N1C[C@H](CCC(=O)O)Oc2ccc(/C=C/c3nccs3)cc21 [Example 89Q, (S,E)-3-(4-((3-ethoxy-1-ethyl-1H-pyrazol-4-yl)sulfonyl)-6-(2-(thiazol-2-yl)vinyl)-3,4-dihydro-2H-benzo[b][1,4]oxazin-2-yl)propanoic acid]",> 10000,> 10000,
"O=C(CC[C@H]1CN(S(=O)(=O)c2cccc(C(F)(F)F)c2)c2cc(/C=C/c3c(F)cccc3Cl)ccc2O1)N1CC2(COC2)C1 [Example 127I, (S,E)-3-(6-(2-chloro-6-fluorostyryl)-4-((3-(trifluoromethyl)phenyl)sulfonyl)-3,4-dihydro-2H-benzo[b][1,4]oxazin-2-yl)-1-(2-oxa-6-azaspiro[3.3]heptan-6-yl)propan-1-one]",,,EC50 (RORγ-LBD; RORγ-LBD TR-FRET assay): < 500 nM; TR-FRET Assay Max Response (RORγ-LBD; RORγ-LBD TR-FRET assay): *** (a value in the range of greater than 150 to 200); EC50 (Gal4-RORγ-LBD; [1]): 500 to 5000 nM; Gal4-RORγ Assay Max Response (Gal4-RORγ-LBD; [1]): ** (a value in the range of greater than 90 to 150)
"COC(=O)CC[C@H]1CN(S(=O)(=O)c2cccc(OC(F)F)c2)c2cc(/C=C(\C)c3c(F)cccc3Cl)c(C)cc2O1 [Example 53, (S,E)-Methyl 3-(6-(2-(2-chloro-6-fluorophenyl)prop-1-en-1-yl)-4-((3-(difluoromethoxy)phenyl)sulfonyl)-7-methyl-3,4-dihydro-2H-benzo[b][1,4]oxazin-2-yl)propanoate]",< 500,500 to 5000,
"CC1(C)CCC(=Cc2ccc3c(c2)N(S(=O)(=O)c2cccc(C(F)(F)F)c2)C[C@H](CCC(=O)O)O3)CC1 [Example 95H, (S)-3-(6-((4,4-dimethylcyclo-hexylidene)methyl)-4-((3-(trifluoromethyl)phenyl)sulfonyl)-3,4-dihydro-2H-benzo[b][1,4]oxazin-2-yl)propanoic acid]",< 500,500 to 5000,
"C/C(=C\c1ccc2c(c1)N(S(=O)(=O)c1cccc(OC(F)F)c1)C[C@H](CCC(=O)O)O2)c1c(F)cccc1Cl [Example 86O, (S,E)-3-(6-(2-(2-chloro-6-fluorophenyl)prop-1-en-1-yl)-4-((3-(difluoromethoxy)phenyl)-sulfonyl)-3,4-dihydro-2H-benzo[b][1,4]oxazin-2-yl)propanoic acid]",< 500,500 to 5000,
"COC(=O)CC[C@H]1CN(S(=O)(=O)c2cccc(C(F)(F)F)c2)c2cc(/C=C/c3c(Cl)cccc3OC)ccc2O1 [Example 89EZ, methyl (S,E)-3-(6-(2-chloro-6-methoxystyryl)-4-((3-(trifluoromethyl)phenyl)-sulfonyl)-3,4-dihydro-2H-benzo[b][1,4]oxazin-2-yl)propanoate]",< 500,< 500,
